{"source": "patent US20230092872A1", "about": "“Method for promoting wound healing” (Phagelux Canada Inc., priority 2021, published 2023)", "test": "Toxicological evaluation of leachable chemicals of BACTELIDE (margin of safety)", "settings": "worst-case exposure: daily exposure, 100% bioavailability; leachables from BACTELIDE spray", "procedure": "ISO 10993-18:2020 and ISO/TS 21726:2019 leachable studies were performed for BACTELIDE. Solutions of BACTELIDE were collected for analysis via the spraying. The extracts were analyzed by gas chromatography-mass spectrometry (GC-MS) for volatile to semi-volatile compounds, by liquid chromatography-mass spectrometry (LC-MS) for semi-volatile to nonvolatile compounds, and by inductively coupled plasma mass spectrometry (ICP-MS) for elemental (metal and other) components. After analysis, results were reported based on the evaluation criteria listed in the results section below. […] 2-(N,N-Diethylamino)ethyldecyl maleate (CAS #184874-09-7) was the most abundant. Regarding LC-MS results, thirty-nine reportable compounds were identified in the test article extracts in positive ion mode. Glycerol dipentadecanoate (CAS #121957-69-5) was the most abundant. Thirty-six reportable compounds were identified in the test article extracts in negative ion mode. 3-[4-[[4-(2-Oxiranylmethoxy)phenyl]methyl]phenoxy]-1,2-propanediol didodecanoate (CAS #not given) was the most abundant. […]\nThe MOS values for all chemicals (or groups of similar chemicals) and elements identified across the analytical methods ranged from 3 to 1340000. A few chemicals had calculated “near-1” (i.e. ≥1 but <10) MOS values. […] Their margins of safety were calculated using the ICH M7 less than 1 year TTC of 0.33. […]", "data": [{"smiles": "OCC(O)COc1ccc(Cc2ccc(OCC3CO3)cc2)cc1", "note": "(stereo not shown) [3-[4-[[4-(2-Oxiranylmethoxy)phenyl]methyl]phenoxy]-1,2-propanediols]", "values": [{"measurement": "MOS value (margin of safety)", "result": 3}]}]}
